Laboratory results from US5132414A, “Dideoxynucleoside-5'-phosphonoformic acid compounds” (Dana-Farber Cancer Institute, Inc., priority 1990, dated 1992).

Experiments:
HIV-1 RT = molecular target: T1, HIV-1 RT (Human immunodeficiency virus type 1 group M subtype B, UniProt P04585); assay: Cell-free assay with purified HIV-1 RT; type: biochemical
T1 construct: purified HIV-1 RT
From the text: (§1) For biological testing, a stock solution of the free acid of Example 1 was made up in DMSO and dispensed into RPMI 1640 cell growth medium to give the desired range of concentrations. The final DMSO concentration in the medium was <0.1%. These solutions in cell growth medium were used in all of the biological tests described below.
To examine the question whether RT inhibition by the compound of Example 1 could by itself account for the antiretroviral effect in intact cells, the effect of the compound on RT activity was examined in a cell-free assay with purified HIV-1 RT. An IC50 value (ca. 50 μM) well in excess of the concentration needed to block viral replication was obtained. Therefore, it appears that metabolism is required in the action of the compound of Example 1 or that the compound has one or more targets other than RT in the cell.

HIV-1 [1] = assay: Inhibition of HIV-1 replication in cultured human peripheral blood leukocytes; type: cell-based; settings: Human immunodeficiency virus 1, Leukocyte; H-PBLs; added 4 hours before virus, measured at 4 days; read-out: 50% inhibition of viral replication
From the text: FIG. 3A is a graph showing inhibition of HIV-1 replication in human peripheral blood leukocytes;
as §1
(§2) The activities of the compound of Example 1, AZT, and PFA were also examined in cultured human peripheral blood leukocytes (H-PBLs) infected with HIV-1. […] In both PBLs and Jurkat cells, therefore, the antiviral potency of the compound of Example 1 resembled that of AZT, while its low cytotoxicity was more reminiscent of that of PFA.

[2] = Cytotoxicity in non-infected Jurkat cells, 4 days exposure; type: cell-based; settings: human, up to 10^-4 M, read-out: decrease in cell viability
Protocol: as §1
(§3) The compound of Example 1 was tested initially for its ability to inhibit HIV-1 replication in Jurkat cells, a CD4+ human T-lymphocyte line commonly used for this purpose. Reverse transcriptase (RT) activity in the supernatant from the infected cells was used as a measure of viral replication, and the compound was added to the cultures at time zero or 4 h post-infection. Parallel cytotoxicity assays were performed in non-infected Jurkat cells to assess therapeutic selectivity.

HIV-1 [3] = assay: Inhibition of HIV-1 replication in Jurkat cells (RT activity), drugs added 4 h before virus (prophylaxis model); type: cell-based; settings: for IC50: read-out: 50% inhibitory concentration (IC50), RT activity in culture supernatants; for IC95: 96 h, read-out: concentration needed to achieve the same degree of inhibition (>95% inhibition of RT activity)
Protocol: The final DMSO concentration in the medium was <0.1%. These solutions in cell growth medium were used in all of the biological tests described below.
In a second evaluation, the compound salt of Example 1, AZT, and PFA were compared as inhibitors of HIV-1 replication in Jurkat cells when added to the cultures 4 h before the virus (i.e., in a prophylaxis model). The drugs were present through the length of the experiment (4 days).

CEM cells = assay: Inhibition of CEM cell growth; type: cell-based, human; settings: for IC50: Homo sapiens, CCRF-CEM, 72 h, read-out: approximate IC50 for CEM cell growth
From the text: (§4) FIG. 5A is a graph showing inhibition by AZT of retroviral propagation and of cell growth in cultured human lymphoblasts infected with simian immuno-deficiency virus;
(§5) FIG. 5B is a graph showing the results of using one embodiment of the invention in the same test as that of FIG. 5A.
as §1
(§6) The activities of AZT and of the compound of Example 1 against simian immunodeficiency virus (SIV) in cultured human lymphoblasts (CEM cells) were assayed; the results are shown in FIGS. 5A and 5B, respectively. The drugs were added to the culture 4 hours before the virus and inhibition was measured at 3 days.

[4] = Inhibition of Jurkat cell growth; type: cell-based, human; settings: human; at 10^-5 M; Jurkat cells; read-out: growth inhibition of host cells
From the text: (§7) FIG. 2B is a graph showing inhibition of Jurkat cell growth under the same conditions as in FIG. 2A;
as §1
(§8) In a second evaluation, the compound salt of Example 1, AZT, and PFA were compared as inhibitors of HIV-1 replication in Jurkat cells when added to the cultures 4 h before the virus (i.e., in a prophylaxis model). The drugs were present through the length of the experiment (4 days). […] Thus, while there was an approximately four-log TI for AZT in this experiment, the TI for the compound of Example 1 could not actually be estimated because the IC50 for cell growth inhibition, extrapolated from the dose-response curve, was >10^-3 M.

Jurkat cells = assay: Inhibition of Jurkat cell growth; type: cell-based, human; settings: Homo sapiens, Jurkat, read-out: IC50 for cell growth inhibition
From the text: as §7, §1, §8

HIV-1 [5] = assay: Inhibition of HIV-1 replication in Jurkat cells (RT activity in supernatant), compound added at time zero or 4 h post-infection; type: cell-based; settings: Human immunodeficiency virus 1, compound added at time zero or 4 h post-infection, read-out: 50% inhibition of RT activity relative to non-treated HIV-infected cells
Protocol: as §1, §3

[6] = Inhibition of growth of human peripheral blood leukocytes; type: cell-based; settings: at 10^-4 M, H-PBLs, read-out: inhibition of PBL growth
From the text: FIG. 3B is a graph showing inhibition of growth of human peripheral blood leukocytes;
as §1, §2

[7] = test system: Rauscher murine leukemia virus (RLV); assay: Plaque assay: inhibition of plaque formation by Rauscher murine leukemia virus in mouse fibroblast cultures; type: cell-based; settings: for inhibition of plaque formation: added 4 hours before virus, 4 days
From the text: FIG. 4A is a graph showing inhibition of plaque formation by a different retrovirus (a murine leukemia virus) in mouse fibroblast cultures;
as §1
The compound of Example 1 as well as AZT and PFA were also tested in a plaque assay for the ability to inhibit plaque formation in mouse fibroblast cultures by Rauscher murine leukemia virus (RLV), a type C retrovirus; the results are shown in FIG. 4A. Drugs were added to the cultures 4 hours before the virus, and inhibition was measured at 4 days. The cytotoxicity of all the agents to non-infected fibroblasts was also determined and found to be <50% at concentrations of up to 10^-5 M as shown in FIG. 4B. […] When AZT alone was used at a concentration of only 10^-9 M there was no effect, but when AZT and PFA were combined, each at concentrations of 10^-9 M, there was almost 50% inhibition of plaque formation even though the PFA was not used in excess.

[8] = test system: monkey peripheral blood leukocytes (M-PBLs); assay: Growth inhibition / toxicity to monkey peripheral blood leukocytes; type: cell-based; settings: in words
From the text: (§9) FIG. 6A is a graph showing results of a test similar to that of FIG. 5A except that monkey peripheral blood leukocytes were used; and
(§10) FIG. 6B is a graph showing inhibition by one embodiment of the invention under the same conditions as in FIG. 5B.
as §1, §6

[9] = test system: simian immunodeficiency virus (SIV); assay: Inhibition of SIV replication in monkey peripheral blood leukocytes (RT activity); type: cell-based
From the text: as §9, §10, §1, §6

[10] = test system: simian immunodeficiency virus (SIV); assay: Inhibition of SIV in cultured human lymphoblasts (CEM cells), RT activity; type: cell-based; settings: CCRF-CEM, added 4 hours before virus, measured at 3 days, read-out: approximate IC50 for inhibition of RT activity in SIV-infected CEM cells
From the text: as §4, §5, §1, §6

[11] = Human immunodeficiency virus 1, Jurkat

Row | Compound | IC50 (HIV-1 [1]) [µM] | IC50 (HIV-1 [3]; [11]) [µM] | IC50 (CEM cells) [µM] | inhibition at 96 h, 10 µM [4] [%] | inhibition at 100 µM [6] [%] | inhibition of plaque formation ([7]; at 10^-7 M) | IC50 [10] [µM] | IC95 (HIV-1 [3]; [11]) [µM] | also measured
1 | CCOC(=O)P(=O)(O)OC[C@H]1O[C@@H](n2cc(C)c(=O)[nH]c2=O)C[C@@H]1N=[N+]=[N-] [Example 1, 3'-Azido-3'-deoxy-5'-[P-(ethoxycarbonyl)-P-Hydroxyphosphinyl]thymidine] | ~0.01 | ~0.002 | > 100 | 20 | 20 | inactive | ~0.01 |  | IC50 (HIV-1 RT): ~50 µM; cytotoxicity at 96 h, 100 µM [2]: < 10%; inhibition at 0.005 µM (HIV-1 [3]; Human immunodeficiency virus 1, Jurkat, read-out: inhibition of RT activity): > 95%; increase in potency relative to AZT (HIV-1 [3]; Jurkat cells, HIV-1, IC50 comparison with AZT): roughly fivefold; times less toxic to the host cells than AZT (CEM cells; CEM cells, relative to AZT): at least 200 times; IC50 (Jurkat cells): > 1000 µM; IC50 (HIV-1 [5]): ~0.5 µM; inhibition of plaque formation ([7]; at 10^-5 M): almost complete inhibition; effectiveness in the RLV system relative to AZT or a 1:1 combination of AZT and PFA ([7]; comparison in words): less effective than AZT or a 1:1 combination of AZT and PFA; toxicity to the host cell relative to AZT [8]: considerably lower than with AZT; IC50 ([9]; Simian immunodeficiency virus, Leukocyte, in Primates, M-PBLs, added 4 hours before virus, read-out: 50% inhibition of RT activity (SIV replication)): 0.1 µM
2 | Cc1cn([C@H]2C[C@H](N=[N+]=[N-])[C@@H](CO)O2)c(=O)[nH]c1=O [AZT, 3'-azidothymidine, reference compound] | ~0.01 | 0.01 | ~2 | 50 to 60 | 80 | Complete inhibition | ~0.005 | 100 | inhibition of plaque formation ([7]; at 10^-9 M): no effect; concentrations required for inhibition of cell growth in M-PBLs (versus CEM cells) [8]: required higher AZT concentrations; concentrations required for inhibition of SIV replication in M-PBLs (versus CEM cells) ([9]; in words): required higher AZT concentrations
3 | O=C(O)P(=O)(O)O [PFA, phosphonoformic acid] |  | 10 |  | 30 |  |  |  | 1000 | inhibition of plaque formation ([7]; until the concentration reached 10^-4 M): no appreciable effect
